According to patent US20230286970A1, “NOVEL OXADIAZOLE-BASED SELECTIVE HDAC6 INHIBITORS” (ITALFARMACO S.P.A., priority 2020, published 2023):

Key:
recombinant human HDAC6 = recombinant human HDAC6 (Homo sapiens (Human), UniProt Q9UBN7); experiment: Enzymatic screening, HDAC6 inhibition (fluorogenic FdL_G substrate); format: biochemical
Protocol: (§1) For each test compound, 100× concentrated DMSO solutions at 8 doses were prepared and then diluted in assay buffer (25 mM Tris-HCl, pH 8, 130 mM NaCl, 0.05% Tween-20, 10% Glycerol) to obtain 5× concentrated solutions in relation to the final concentrations (typical final concentration range—6.4-200000 nM or 0.18-50000 nM, final DMSO content—1%). Then 10 μL solution of each test compound concentration were placed on a 96-well plate in triplicate and 15 μL of 3.33× concentrated enzyme solution in the assay buffer containing 3.33× concentrated BSA (final BSA concentration—2 mg/mL for HDAC4, HDAC5 and HDAC9 or 1 mg/mL for other isoforms) and in the case of HDAC6-3.33× concentrated TCEP (final TCEP concentration—200 μM) were added to each well. After a period of preincubation (incubation times and temperatures vary for different isoforms and are shown in table 1) 25 μL of solution containing the substrate were added. As substrate, FLUOR DE LYS® deacetylase substrate (Enzo Life Sciences, cat: BML-KI104, FdL), FLUOR DE LYS®-Green substrate (Enzo Life Sciences, cat: BML-KI572, FdL_G) or Boc-Lys(Tfa)-AMC (Bachem, cat: 4060676.005, Tfal)—2× concentrated solution in assay buffer were used. Following a reaction period (reaction times and temperatures vary for different isoforms and are reported in Table 1), 50 μL of the development solution consisting of concentrate FLUOR DE LYS® developer I (Enzo Life Sciences, ca: BML-KI105), diluted 200 times in buffer (50 mM Tris-HCl, pH 8, 137 mM NaCl, 2.7 mM KCl, 1 mM MgCl2) plus 2 μM TSA was added and, after 25 minutes at room temperature in the dark, using the Victor 1420 Multilabel Counter Perkin Elmer Wallac instrument, the fluorescence reading was carried out.

recombinant human HDAC1 = recombinant human HDAC1 (Homo sapiens (Human), UniProt Q13547); experiment: Enzymatic screening, HDAC1 inhibition (fluorogenic FdL_G substrate); format: biochemical
recombinant human HDAC1, sequence (Q13547 whole entry): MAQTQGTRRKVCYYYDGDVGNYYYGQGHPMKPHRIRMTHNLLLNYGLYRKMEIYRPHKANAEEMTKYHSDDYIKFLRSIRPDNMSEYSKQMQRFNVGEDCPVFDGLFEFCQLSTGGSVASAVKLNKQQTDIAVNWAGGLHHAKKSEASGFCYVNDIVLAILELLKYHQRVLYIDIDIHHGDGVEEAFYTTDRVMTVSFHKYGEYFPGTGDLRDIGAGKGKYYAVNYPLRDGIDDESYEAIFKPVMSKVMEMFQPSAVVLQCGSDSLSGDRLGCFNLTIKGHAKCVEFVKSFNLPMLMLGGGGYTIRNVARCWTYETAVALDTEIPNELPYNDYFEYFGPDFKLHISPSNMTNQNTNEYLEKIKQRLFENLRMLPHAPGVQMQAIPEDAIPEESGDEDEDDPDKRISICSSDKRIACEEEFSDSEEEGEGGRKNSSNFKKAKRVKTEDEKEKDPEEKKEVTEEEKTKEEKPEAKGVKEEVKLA
Protocol: as §1

recombinant human HDAC6, sequence (Q9UBN7 whole entry, canonical isoform): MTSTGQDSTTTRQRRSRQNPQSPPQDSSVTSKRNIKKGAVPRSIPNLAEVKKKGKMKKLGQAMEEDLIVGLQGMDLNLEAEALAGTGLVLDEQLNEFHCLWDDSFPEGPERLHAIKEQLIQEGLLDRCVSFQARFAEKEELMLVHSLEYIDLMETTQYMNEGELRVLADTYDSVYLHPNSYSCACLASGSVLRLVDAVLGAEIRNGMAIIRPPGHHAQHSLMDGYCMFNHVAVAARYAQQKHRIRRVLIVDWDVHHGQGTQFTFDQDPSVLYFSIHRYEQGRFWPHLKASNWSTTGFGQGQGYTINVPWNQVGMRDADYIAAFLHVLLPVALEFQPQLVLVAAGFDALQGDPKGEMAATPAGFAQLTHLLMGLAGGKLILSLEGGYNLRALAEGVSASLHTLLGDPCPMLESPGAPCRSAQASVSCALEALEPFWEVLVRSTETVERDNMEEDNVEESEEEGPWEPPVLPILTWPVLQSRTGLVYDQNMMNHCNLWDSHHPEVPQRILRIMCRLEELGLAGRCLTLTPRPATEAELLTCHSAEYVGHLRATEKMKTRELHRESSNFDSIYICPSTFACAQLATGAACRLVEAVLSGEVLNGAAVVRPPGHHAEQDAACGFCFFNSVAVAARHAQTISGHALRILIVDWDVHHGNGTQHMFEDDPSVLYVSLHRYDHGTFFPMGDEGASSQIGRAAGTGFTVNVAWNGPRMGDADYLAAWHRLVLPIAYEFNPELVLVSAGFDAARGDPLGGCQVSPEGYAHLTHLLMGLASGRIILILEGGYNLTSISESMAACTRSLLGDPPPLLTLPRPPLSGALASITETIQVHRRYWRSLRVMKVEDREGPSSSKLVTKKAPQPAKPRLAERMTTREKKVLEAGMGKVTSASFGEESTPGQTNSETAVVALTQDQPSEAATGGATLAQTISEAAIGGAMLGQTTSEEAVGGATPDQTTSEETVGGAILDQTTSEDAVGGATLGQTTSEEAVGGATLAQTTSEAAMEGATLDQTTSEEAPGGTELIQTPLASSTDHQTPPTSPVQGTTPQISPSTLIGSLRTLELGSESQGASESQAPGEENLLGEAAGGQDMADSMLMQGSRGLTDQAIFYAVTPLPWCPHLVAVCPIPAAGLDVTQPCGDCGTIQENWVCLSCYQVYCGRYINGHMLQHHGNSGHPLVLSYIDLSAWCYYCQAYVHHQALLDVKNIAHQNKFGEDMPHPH

| IC50 (recombinant human HDAC6) [nM] | IC50 (recombinant human HDAC1) [µM] | Structure (SMILES) |
| --- | --- | --- |
| 115 | > 200 | CN(Cc1ccncc1)Cc1ccc(-c2nnn(Cc3c(F)cc(-c4nnc(C(F)F)o4)cc3F)n2)cc1 [compound 201, N-(4-(2-(4-(5-(difluoromethyl)-1,3,4-oxadiazol-2-yl)-2,6-difluorobenzyl)-2H-tetrazol-5-yl)benzyl)-N-methyl-1-(pyridin-4-yl)methanamine] |
| 52 | > 1000 | Nc1nc2cc(-c3cnn(Cc4ccc(-c5nnc(C(F)F)o5)cn4)c3)ccc2[nH]1 [compound 331, 5-[1-[[5-[5-(difluoromethyl)-1,3,4-oxadiazol-2-yl]pyridin-2-yl]methyl]pyrazol-4-yl]-1H-benzimidazol-2-amine] |
| 133 | > 200 | O=C1Nc2cc(-c3nnn(Cc4ccc(-c5nnc(C(F)F)o5)cc4)n3)ccc2NC12CCCCC2 [compound 209, 6′-(2-(4-(5-(difluoromethyl)-1,3,4-oxadiazol-2-yl)benzyl)-2H-tetrazol-5-yl)-1′,4′-dihydro-3′H-spiro[cyclohexane-1,2′-quinoxalin]-3′-one] |
| 92 | > 200 | Fc1ccccc1-c1nnn(Cc2ccc(-c3nnc(C(F)F)o3)cc2)n1 [compound 181, 2-(difluoromethyl)-5-(4-((5-(2-fluorophenyl)-2H-tetrazol-2-yl)methyl)phenyl)-1,3,4-oxadiazole] |
| 56 | > 200 | Nc1ccc(-c2nc(Cc3c(F)cc(-c4nnc(C(F)F)o4)cc3F)no2)cn1 [compound 141, 5-(3-(4-(5-(difluoromethyl)-1,3,4-oxadiazol-2-yl)-2,6-difluorobenzyl)-1,2,4-oxadiazol-5-yl)pyridin-2-amine] |
| 147 | > 200 | CN1CCN(c2ccc(-c3nnn(Cc4ccc(-c5nnc(C(F)F)o5)cc4)n3)cn2)CC1 [compound 212, 2-(difluoromethyl)-5-(4-((5-(6-(4-methylpiperazin-1-yl)pyridin-3-yl)-2H-tetrazol-2-yl)methyl)phenyl)-1,3,4-oxadiazole] |
| 323 | > 200 | Cn1c(Sc2c(F)cc(-c3nnc(C(F)F)o3)cc2F)nnc1-c1ccc(N)nc1 [compound 284, 5-(5-((4-(5-(difluoromethyl)-1,3,4-oxadiazol-2-yl)-2,6-difluorophenyl)thio)-4-methyl-4H-1,2,4-triazol-3-yl)pyridin-2-amine] |
| 67 | > 200 | Nc1nc2cc(-c3cn(Cc4ccc(-c5nnc(C(F)F)o5)cc4)cn3)ccc2s1 [compound 300, 5-(1-(4-(5-(difluoromethyl)-1,3,4-oxadiazol-2-yl)benzyl)-1H-imidazol-4-yl)benzo[d]thiazol-2-amine] |
| 40 | 1000 | Nc1ncnc2sc(-c3cn(Cc4c(F)cc(-c5nnc(C(F)F)o5)cc4F)nn3)cc12 [compound 386, 6-(1-(4-(5-(difluoromethyl)-1,3,4-oxadiazol-2-yl)-2,6-difluorobenzyl)-1H-1,2,3-triazol-4-yl)thieno[2,3-d]pyrimidin-4-amine] |
| 13 | > 1000 | Fc1cc(Cc2nc(-c3ccc(NC4=NCCN4)cc3)no2)ccc1-c1nnc(C(F)F)o1 [compound 383, N-(4-(5-(4-(5-(difluoromethyl)-1,3,4-oxadiazol-2-yl)-3-fluorobenzyl)-1,2,4-oxadiazol-3-yl)phenyl)-4,5-dihydro-1H-imidazol-2-amine] |
| 26 | > 200 | CC(C)(C)OC(=O)N1CCC2(C1)C(=O)Nc1ccc(-c3cn(Cc4ccc(-c5nnc(C(F)F)o5)cn4)nn3)cc12 (single isomer, unassigned) [compound 265, tert-butyl 5-[1-({5-[5-(difluoromethyl)-1,3,4-oxadiazol-2-yl]pyridin-2-yl}methyl)-1H-1,2,3-triazol-4-yl]-2-oxo-1,2-dihydrospiro[indole-3,3′-pyrrolidine]-1′-carboxylate] |
| 89 | > 200 | FC(F)c1nnc(-c2ccc(Cn3cc(-c4cnc5cccnn45)nn3)cc2)o1 [compound 280, 2-(difluoromethyl)-5-(4-((4-(imidazo[1,2-b]pyridazin-3-yl)-1H-1,2,3-triazol-1-yl)methyl)phenyl)-1,3,4-oxadiazole] |
| 102 | > 200 | Nc1cccc(-c2cn(Cc3ccc(-c4nnc(C(F)F)o4)cc3)nn2)c1 [compound 192, 3-(1-(4-(5-(difluoromethyl)-1,3,4-oxadiazol-2-yl)benzyl)-1H-1,2,3-triazol-4-yl)aniline] |
| 210 | > 200 | CN1CC(=O)Nc2cc(-c3cn(Cc4c(F)cc(-c5nnc(C(F)F)o5)cc4F)nn3)ccc2C1 [Compd. 237, 8-(1-(4-(5-(difluoromethyl)-1,3,4-oxadiazol-2-yl)-2,6-difluorobenzyl)-1H-1,2,3-triazol-4-yl)-4-methyl-1,3,4,5-tetrahydro-2H-benzo[e][1,4]diazepin-2-one] |
| 39 | > 200 | NCc1ccc(-c2nc(Cc3c(F)cc(-c4nnc(C(F)F)o4)cc3F)no2)cc1 [compound 100, (4-(3-(4-(5-(difluoromethyl)-1,3,4-oxadiazol-2-yl)-2,6-difluorobenzyl)-1,2,4-oxadiazol-5-yl)phenyl)methanamine] |
| 63 | > 200 | FC(F)c1nnc(-c2ccc(Cn3nnc(C4(c5ccccn5)CC4)n3)cc2)o1 [compound 147, 2-(difluoromethyl)-5-(4-((5-(1-(pyridin-2-yl)cyclopropyl)-2H-tetrazol-2-yl)methyl)phenyl)-1,3,4-oxadiazole] |
| 99 | > 200 | FC(F)c1nnc(-c2ccc(Cn3nnc(-c4cccc(-n5cccn5)c4)n3)cc2)o1 [compound 188, 2-(4-((5-(3-(1H-pyrazol-1-yl)phenyl)-2H-tetrazol-2-yl)methyl)phenyl)-5-(difluoromethyl)-1,3,4-oxadiazole] |
| 21 | > 1000 | [2H]C([2H])(c1ccc(-c2nnc(C(F)F)o2)cc1)n1cc(-c2ccc3nc(N)sc3c2)nn1 [compound 351, 6-[1-[dideuterio-[4-[5-(difluoromethyl)-1,3,4-oxadiazol-2-yl]phenyl]methyl]triazol-4-yl]-1,3-benzothiazol-2-amine] |
| 35 | > 200 | CC(C)(C)OC(=O)N1CCC2(C1)C(=O)Nc1ccc(-c3cn(Cc4ccc(-c5nnc(C(F)F)o5)cn4)nn3)cc12 (single isomer, unassigned) [compound 266, tert-butyl 5-[1-({5-[5-(difluoromethyl)-1,3,4-oxadiazol-2-yl]pyridin-2-yl}methyl)-1H-1,2,3-triazol-4-yl]-2-oxo-1,2-dihydrospiro[indole-3,3′-pyrrolidine]-1′-carboxylate] |
| 33 | > 200 | FC(F)c1nnc(-c2ccc(Cn3nnc(-c4cncc(Br)c4)n3)cc2)o1 [compound 82, 2-(4-((5-(5-bromopyridin-3-yl)-2H-tetrazol-2-yl)methyl)phenyl)-5-(difluoromethyl)-1,3,4-oxadiazole] |
| 395 | > 200 | CC(=O)N1CCC(c2nnn(Cc3ccc(-c4nnc(C(F)F)o4)cc3)n2)CC1 [compound 257, 1-(4-(2-(4-(5-(difluoromethyl)-1,3,4-oxadiazol-2-yl)benzyl)-2H-tetrazol-5-yl)piperidin-1-yl)ethan-1-one] |
